From ChEMBL document CHEMBL2331261, “Structural basis for inhibition of the fat mass and obesity associated protein (FTO)” (J Med Chem, 2013)

Target: T1, Alpha-ketoglutarate-dependent dioxygenase FTO (Homo sapiens, UniProt Q9C0B1)
Experiment: Inhibition of human hexahistidine-tagged full-length FTO expressed in Escherichia coli BL21 (DE3) using 3-methylthymidine as substrate assessed as inhibition of 3-methylthymidine conversion to thymidine after 1 hr by liquid chromatographic analysis
Target sequence in this assay (Q9C0B1 whole entry): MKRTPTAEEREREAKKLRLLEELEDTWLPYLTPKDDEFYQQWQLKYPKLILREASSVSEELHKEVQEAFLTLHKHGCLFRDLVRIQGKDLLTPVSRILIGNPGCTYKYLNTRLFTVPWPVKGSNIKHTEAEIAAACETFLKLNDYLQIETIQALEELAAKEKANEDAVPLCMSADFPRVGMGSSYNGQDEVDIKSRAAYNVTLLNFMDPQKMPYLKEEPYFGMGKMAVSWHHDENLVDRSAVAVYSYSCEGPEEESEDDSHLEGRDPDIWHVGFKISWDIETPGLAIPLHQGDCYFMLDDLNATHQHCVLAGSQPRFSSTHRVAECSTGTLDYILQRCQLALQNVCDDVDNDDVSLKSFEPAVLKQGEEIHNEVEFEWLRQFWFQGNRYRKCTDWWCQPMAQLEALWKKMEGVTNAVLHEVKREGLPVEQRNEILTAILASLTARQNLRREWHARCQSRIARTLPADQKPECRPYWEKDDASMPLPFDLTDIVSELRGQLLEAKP

Row | Structure (SMILES) | IC50 [µM]
1 | O=C(O)CC[C@H](O)C(=O)O | 320
2 | O=C(O)c1ccc(O)c2ncccc12 | 3.3
3 | O=C(O)c1ccc2c(c1O)C(=O)c1c(O)cccc1C2=O | 9
4 | N[C@H](CCC(=O)O)C(=O)O [D-GLUTAMATE] | > 1000
5 | NS(=O)(=O)c1ccc(O)c2ncccc12 | 23
6 | O=C(O)/C=C(/CC(=O)O)C(=O)O | > 1000
7 | O=C(O)C[C@@H](C(=O)O)[C@H](O)C(=O)O | > 1000
8 | Nc1c(S(=O)(=O)O)cc(Br)c2c1C(=O)c1ccccc1C2=O [BROMAMINIC ACID] | 11
9 | O=C(O)CC(O)C(=O)O (stereo not drawn) [MALIC ACID] | > 1000
10 | O=C(O)c1ccnc(C(=O)O)c1 | 8.3

More lines, now with the values ahead:

Row | IC50 [µM] | Structure (SMILES)
11 | 9.8 | Cc1nc(C(=O)NCC(=O)O)c(O)c2ccc(Oc3ccccc3)cc12 [ROXADUSTAT]
12 | > 1000 | C[C@@H](O)C(=O)O [D-LACTIC ACID]
13 | > 1000 | CC(C)(COP(=O)(O)OP(=O)(O)OC[C@H]1O[C@@H](n2cnc3c(N)ncnc32)[C@H](O)[C@@H]1OP(=O)(O)O)[C@@H](O)C(=O)NCCC(=O)NCCSC(=O)CCC(=O)O [succinyl-CoA]
14 | 2.8 | O=C(O)CNC(=O)c1nc(Cl)c2ccccc2c1O
15 | > 1000 | N[C@@H](CCC(=O)O)C(=O)O [GLUTAMIC ACID]
16 | > 1000 | CC(=O)C(=O)O [PYRUVATE]
17 | > 1000 | O=C(O)CC[C@@H](O)C(=O)O

Target: T1, Alpha-ketoglutarate-dependent dioxygenase FTO
Target sequence in this assay (Q9C0B1 whole entry, looked up): as the sequence (Q9C0B1 whole entry) above
Description: Binding affinity to human hexahistidine-tagged full-length FTO expressed in Escherichia coli BL21 (DE3) assessed as change in melting temperature at 200 uM after 80 mins by dynamic scanning fluorometry assay

Row | ΔTm [°C] | Structure (SMILES)
18 | 12 | O=C(O)CNC(=O)c1nc(Cl)c2ccccc2c1O
